Laboratory results taken from paper PMC6112376, “Comprehensive Analyses and Prioritization of Tox21 10K Chemicals Affecting Mitochondrial Function by in-Depth Mechanistic Studies” (Environmental Health Perspectives, 2018).
Where a name gives a salt, the structure may show the parent alone. Read-outs that look alike come from different tables or passages of the source.

Assays:
rat primary hepatocytes [1] = test system: rat primary hepatocytes
rat primary hepatocytes [2] = experiment: MMP assay in rat primary hepatocytes; details: for IC50: Rattus norvegicus, Hepatocyte
HepG2 cells [3] = experiment: cells; details: Homo sapiens; for Emax: HepG2, read-out: MMP assays efficacy (%) HepG2
HepG2 cells [4] = details: cited from earlier work
[5] = HepG2, read-out: MMP assays IC50 (µM) HepG2
[6] = read-out: MMP assays IC50 (µM) qHTS-HepG2
[7] = read-out: MMP assays IC50 (µM), qHTS-HepG2
[8] = read-out: MMP assays IC50 (µM) Rat Hepatocytes

SMILES	MMP assays efficacy (%) Rat Hepatocytes (rat primary hepatocytes [1])	MMP assays IC50 (µM) Rat Hepatocytes (rat primary hepatocytes [2])	IC50 (HepG2 cells [3]; [5]) [µM]	Emax (HepG2 cells [3]) [%]	MMP assays efficacy (%) qHTS-HepG2 (HepG2 cells [4]) [%]	IC50 (HepG2 cells [4]; [6]) [µM]	IC50 (HepG2 cells [4]; [7]) [µM]	IC50 (rat primary hepatocytes [2]; [8]) [µM]	IC50 (rat primary hepatocytes [2]; 1 h, read-out: IC50 in rat primary hepatocytes (MMP, tier-one retest)) [µM]	IC50 (HepG2 cells [3]; HepG2, read-out: IC50 in HepG2 cells (MMP, tier-one retest)) [µM]
Oc1ccc(Cc2ccccc2)cc1 [Compound 4-Benzylphenol]	inactive	inactive	31.6	118	-124±22	15.9 ± 3.38	–	–	–	–
CN(C)c1ccc2nc3ccc(=[N+](C)C)cc-3sc2c1 [Methylene blue]	inactive	inactive	2.75	89	-78±9	–	2.88 ± 1.33	–	–	–
CC(=O)N1CCN(c2ccc(OCC3COC(Cn4ccnc4)(c4ccc(Cl)cc4Cl)O3)cc2)CC1 (centres unmarked) [Ketoconazole]	inactive	inactive	5.48	55	-56±14	–	10.8 ± 3.25	–	–	–
CC(NCCC(c1ccccc1)c1ccccc1)c1ccccc1 (centres unmarked) [Fendiline hydrochloride]	inactive	inactive	9.75	87	-79±12	10.3 ± 1.55	–	–	–	–
Oc1ccc(C2(c3ccc(O)cc3)CCCCC2)cc1 [Bisphenol Z]	-34±12%	–	19.9	113	-101±12	22.2 ± 5.51	–	14.7 ± 15.1	–	–
ClC1=C(Cl)C2(Cl)C3C4CC(C5OC45)C3C1(Cl)C2(Cl)Cl (centres unmarked) [Endrin]	inactive	inactive	21.8	55	-75±20	23.5 ± 7.96	–	–	–	–
C=C(C)CN(CC)c1c([N+](=O)[O-])cc(C(F)(F)F)cc1[N+](=O)[O-] [Ethalfluralin]	inactive	inactive	44.7	68	-57±4	43.3 ± 17.6	–	–	–	–
COP(=S)(OC)Oc1cc(Cl)c(Br)cc1Cl [Bromofos]	-111±7%	–	8.91	95	-105±8	7.7 ± 1.63	–	22.7 ± 10.4	–	–
CC(=O)Oc1ccc(C2(c3ccc(OC(C)=O)cc3)C(=O)Nc3ccccc32)cc1 [Oxyphenisatin acetate]	-71±28%	–	17.3	118	-63±8	–	5.49 ± 4.6	20.6 ± 1.68	–	–
CC(=O)O[C@H]1C[C@H](O[C@H]2[C@@H](O)C[C@H](O[C@H]3[C@@H](O)C[C@H](OC4CC[C@@]5(C)[C@H](CC[C@@H]6[C@@H]5CC[C@]5(C)[C@@H](C7=CC(=O)OC7)CC[C@]65O)C4)O[C@@H]3C)O[C@@H]2C)O[C@H](C)[C@H]1O[C@@H]1O[C@H](CO)[C@@H](O)[C@H](O)[C@H]1O (some centres unmarked) [Lanatoside A]	inactive	inactive	0.14	91	-69±2	–	0.43 ± 0.04	–	–	–
Cc1cc(O)c2c3c4c(cc(O)c13)C(C)(C)C(=O)c1c(O)cc(O)c(c1-4)C2=O [Geliomycin]	-101±18%	–	0.19	94	-120±11	–	0.52 ± 0.04	0.55 ± 0.31	–	–
Oc1c(Cl)cc(Cl)c2cccnc12 [CHLOROXINE]	inactive	inactive	9.75	99	-75±22	10.6 ± 1.22	–	–	–	–
CC(COc1ccccc1)N(CCCl)Cc1ccccc1 (centres unmarked) [Phenoxybenzamine hydrochloride]	inactive	inactive	35.5	63	-99±7	–	48.8 ± 9.17	–	–	–
CC1(C)[C@H](C(=O)O[C@H](C#N)c2cccc(Oc3ccccc3)c2)[C@@H]1C=C(Br)Br [Deltamethrin]	-65±42%	–	50.1	93	-75±5	45.9 ± 17.9	–	39.8 ± 14.2	–	–
CC(C)=CCC1=C(O)C(=O)c2ccccc2C1=O [Lapachol]	inactive	inactive	31.6	113	-117±24	–	26.1 ± 1.7	–	–	–
O=C(Nc1ccc(Cl)c(Cl)c1)c1cc(Cl)cc(Cl)c1O [3,5-Dichlorosalicyl-3,4-dichloroanilide]	-67±6%	–	0.11	93	-105±6	0.22 ± 0.09	–	0.38 ± 0.03	–	–
Brc1ccc(Oc2ccc(Br)cc2Br)c(Br)c1 [2,2'4,4'-Tetrabromodiphenyl ether]	-42±10%	–	39.8	104	-119±10	22.6 ± 5.18	–	25.6 ± 34.7	–	–

SMILES	MMP assays efficacy (%) Rat Hepatocytes (rat primary hepatocytes [1])	MMP assays IC50 (µM) Rat Hepatocytes (rat primary hepatocytes [2])	IC50 (HepG2 cells [3]; [5]) [µM]	Emax (HepG2 cells [3]) [%]	MMP assays efficacy (%) qHTS-HepG2 (HepG2 cells [4]) [%]	IC50 (HepG2 cells [4]; [6]) [µM]	IC50 (HepG2 cells [4]; [7]) [µM]	IC50 (rat primary hepatocytes [2]; [8]) [µM]	IC50 (rat primary hepatocytes [2]; 1 h, read-out: IC50 in rat primary hepatocytes (MMP, tier-one retest)) [µM]	IC50 (HepG2 cells [3]; HepG2, read-out: IC50 in HepG2 cells (MMP, tier-one retest)) [µM]
O=P(OCC(Br)CBr)(OCC(Br)CBr)OCC(Br)CBr (centres unmarked) [Tris(2,3-dibromopropyl) phosphate]	-91±11%	–	50.1	110	-99±7	–	45.8 ± 8.72	44 ± 10.7	–	–
CC(=O)C(Cl)(Cl)Cl [1,1,1-Trichloropropanone]	-42±17%	–	3.16	123	-93±13	1.22 ± 0.56	–	23.7 ± 29.6	–	–
CC(C)(C)c1cc([N+](=O)[O-])cc(C(C)(C)C)c1O [2,6-di-tert-butyl-4-nitrophenol]	-109±11%	–	–	108	-96±13	0.17 ± 0.05	–	–	0.29	0.11
CS(=O)(=O)Nc1ccc([N+](=O)[O-])cc1Oc1ccccc1 [Nimesulide]	-117±42%	–	4.16	120	-101±6	–	3.87 ± 0.23	2.74 ± 0.35	–	–
C=C1/C(=C\C=C2/CCC[C@]3(C)[C@@H]([C@H](C)CCCC(C)(C)O)CC[C@@H]23)C[C@@H](O)C[C@@H]1O [Calcitriol]	-37±8%	–	15.5	75	-94±17	14.1 ± 4.15	–	22.4 ± 7.17	–	–
CC(=O)c1cc2c(cc1C)C(C)(C)C(C)CC2(C)C (centres unmarked)	inactive	inactive	28.2	73	-74±22	30.6 ± 18.9	–	–	–	–
CCOc1ccccc1OCCN[C@H](C)Cc1ccc(OC)c(S(N)(=O)=O)c1 [Tamsulosin hydrochloride]	-45±27%	–	30.8	80	-70±8	–	27.2 ± 2.92	25.1 ± 8.04	–	–
CCCCOC(=O)c1ccc(O)cc1 [Butylparaben]	inactive	inactive	35.5	124	-109±15	19	–	–	–	–
COC(=O)N(C(=O)N1CO[C@@]2(C(=O)OC)Cc3cc(Cl)ccc3C2=N1)c1ccc(OC(F)(F)F)cc1 [Indoxacarb]	-88±26%	–	15.3	57	-83±20	–	12.7 ± 3.65	34.4 ± 5.58	–	–
Oc1cc(Cl)c(Cl)c(Cl)c1Cl [2,3,4,5-Tetrachlorophenol]	-76±25%	–	7.94	121	-99±11	4.93 ± 2.04	–	11.6 ± 5.42	–	–
CN(C)C(=S)SSC(=S)N(C)C [THIRAM]	-96±85%	–	24.5	66	-57±29	–	–	16.5 ± 20.3	–	–
Nc1ccc(Cc2ccc(N)c(Cl)c2)cc1Cl [4,4'-Methylenebis(2-chloroaniline)]	-52±15%	–	39.8	87	-98±24	49.1 ± 17	–	56.2	–	–
C[C@]12O[C@H](C[C@]1(O)CO)n1c3ccccc3c3c4c(c5c6ccccc6n2c5c31)CNC4=O [lestaurtinib]	-92±26%	–	5.62	100	-84±9	–	4.8 ± 0.97	12.8 ± 2.67	–	–
Oc1ccc(/C=C/c2cc(O)cc(O)c2)cc1 [Resveratrol]	inactive	inactive	3.71	33	-66±11	–	1.6 ± 0.43	–	–	–
Cc1cc2nc3c(=O)[nH]c(=O)nc-3n(C[C@H](O)[C@H](O)[C@H](O)CO)c2cc1C [Riboflavin]	-97±58%	–	11.2	86	-113±7	–	7.02 ± 1.78	31.3 ± 8.72	–	–
O=[N+]([O-])c1ccc(Nc2ccccc2)cc1 [Compound 4-Nitro-N-phenylaniline]	-93±7%	–	8.91	94	-99±15	7.43 ± 6.54	–	23.9 ± 7.05	–	–
